# From patent US20240383856A1 (Zedira GmbH, priority 2021, published 2024)
# Where two headings read alike, the source gives them in different places.
# Key:
# [1] = Caco-2 permeability assay (CacoReady kit); format: in vitro ADME; details: human
# Summary of the method: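 Compounds are tested on pre-formed Caco-2 barriers supplied as a ready-to-use kit, following the kit protocol, and the Papp value is derived to estimate intestinal absorption.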
# [2] = Single-dose oral pharmacokinetic profile in mice; format: in vivo; details: male C57BL/6 mice, single oral dose 200 mg/kg; for CL/F / MRT / half-life / AUC(0-t) / Cmax: mouse, plasma
# Protocol: Presumed from promising Papp values (permeability coefficients, see below), the 5 inventors had proven the oral bioavailability of the inhibitors of the present application by the representative compounds II-3, II-15, and II-28. For this selected set of representative compounds, pharmacokinetic profiles were determined in male C57BL/6 mice (N=3, each). Briefly, the compounds were administered as single-dose soluble, oral formulation [20 mg/ml in PBS/(2—Hydroxypropyl)-β-cyclodextrin formulation] at 200 mg/kg. Plasma samples were taken at (0, 0.25, 0.5, 1, 2, 4, and 6 hours) and analyzed by LC-MS to determine the concentration of the representative compounds.
# [3] = logD by shake flask method (octanol / PBS pH 7.4, HPLC); format: physicochemical; details: octanol / PBS pH 7.4, shake flask
# Summary of the method: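 LogD obtained by HPLC measurement of how the compound distributes between PBS (pH 7.4) and octanol in a shake-flask experiment.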
# [4] = target: T1, recombinant human transglutaminase 2 (Homo sapiens, UniProt P21980); assay: Transglutaminase assay (DCC-assay): incorporation of dansylcadaverine into dimethylcasein; format: biochemical
# T1 construct: purchased Zedira T022
# T1 sequence (P21980 1-687): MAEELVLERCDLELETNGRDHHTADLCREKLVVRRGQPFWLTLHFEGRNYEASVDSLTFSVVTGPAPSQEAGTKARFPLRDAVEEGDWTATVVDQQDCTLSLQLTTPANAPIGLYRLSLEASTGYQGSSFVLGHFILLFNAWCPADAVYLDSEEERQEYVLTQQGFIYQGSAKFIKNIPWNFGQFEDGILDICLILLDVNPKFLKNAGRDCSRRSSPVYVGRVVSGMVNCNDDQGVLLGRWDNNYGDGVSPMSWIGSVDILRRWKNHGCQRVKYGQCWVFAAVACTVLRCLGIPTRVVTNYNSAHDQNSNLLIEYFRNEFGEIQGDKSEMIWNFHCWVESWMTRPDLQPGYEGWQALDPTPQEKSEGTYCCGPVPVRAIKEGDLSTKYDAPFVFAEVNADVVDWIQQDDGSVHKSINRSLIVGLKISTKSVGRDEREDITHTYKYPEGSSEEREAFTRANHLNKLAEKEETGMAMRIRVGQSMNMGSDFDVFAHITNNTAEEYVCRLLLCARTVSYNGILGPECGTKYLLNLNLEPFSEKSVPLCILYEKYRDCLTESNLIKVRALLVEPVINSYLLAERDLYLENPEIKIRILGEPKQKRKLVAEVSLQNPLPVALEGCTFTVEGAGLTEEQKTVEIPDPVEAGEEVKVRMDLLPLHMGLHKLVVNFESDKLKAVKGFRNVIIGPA
# Summary of the method: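 IC50 is the inhibitor level that blocks 50% of initial activity. Activity is the fluorescence slope (λex 330, λem 500 nm) between 20 and 30 min of a 37 °C run, relative to a 2% DMSO control. The enzyme is recombinant human tissue transglutaminase, 10 nM final, tested against a 1:2 inhibitor dilution series in a pH 8.0 mix with 10 mM CaCl2, 10 mM glutathione, 16.7 µM dansylcadaverine and 4 µM N,N-dimethylcasein.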
# [5] = Caco-2, Caco-2, read-out: Papp [cm/s] ×10^−6
# [6] = Caco-2, Caco-2 barrier, CacoReady kit, above 1×10^−6 cm/s classified as permeable
# [7] = TG2, table with the PK study, read-out: IC50
# [8] = recombinant human TG2 10 nM, dansylcadaverine incorporation into dimethylcasein, read-out: IC50 TG2
SMILES,"Papp [1, 5] [×10⁻⁶ cm/s]","Papp [1, 6] [×10⁻⁶ cm/s]",Kel [2] [h⁻¹],CL/F [2] [mL/min/kg],MRT [2] [h],half-life [2] [h],AUC(0-t) [2] [ng·h/mL],Cmax ([2]; read-out: Cmax) [µM],Cmax ([2]; read-out: Cmax [ng/ml]) [ng/mL],logD [3],"IC90 ([4]; TG2, table with the PK study) [nM]","IC50 [4, 7] [nM]","IC50 [4, 8] [nM]"
"CNC(=O)C(=O)CC[C@H](NC(=O)c1snnc1CO)C(=O)Nc1cccn(CC(=O)NC2C3CC4CC(C3)CC2C4)c1=O (stereo partly drawn) [II-206, (S)-2-(4-(hydroxymethyl)-1,2,3-thiadiazole-5-carboxamido)-N1-(1-(2-(2-adamantylamino)-2-oxoethyl)-2-oxo-1,2-dihydropyridin-3-yl)-N6-methyl-5-oxohexanediamide]",,< 1,,,,,,,,< 1,,,40 to 400
"CNC(=O)C(=O)CC[C@H](NC(=O)c1cncn1C)C(=O)Nc1cccn(CC(=O)NC23CC4CC(CC(C4)C2)C3)c1=O [II-207, (S)-N1-(1-(2-(1-adamantylamino)-2-oxoethyl)-2-oxo-1,2-dihydropyridin-3-yl)-N6-methyl-2-(1-methyl-1H-imidazole-5-carboxamido)-5-oxohexanediamide]",,< 1,,,,,,,,< 1,,,40 to 400
"CNC(=O)C(=O)CC[C@H](NC(=O)c1nccn1C)C(=O)Nc1cccn(CC(=O)NC[C@@H]2CC[C@H]3C[C@@H]2C3(C)C)c1=O [II-208, (S)-N1-(1-(2-(((1S,2R,5S)-6,6-dimethylbicyclo[3.1.1]heptan-2-yl)methylamino)-2-oxoethyl)-2-oxo-1,2-dihydropyridin-3-yl)-N6-methyl-2-(1-methyl-1H-imidazole-2-carboxamido)-5-oxohexanediamide]",,< 1,,,,,,,,1 to 3,,,400 to 2500
"CNC(=O)C(=O)CC[C@H](NC(=O)c1c[nH]cn1)C(=O)Nc1cccn(CC(=O)NC[C@@H]2CC[C@@H]3C[C@H]2C3(C)C)c1=O [II-209, (S)-N1-(1-(2-(((1R,2R,5R)-6,6-dimethylbicyclo[3.1.1]heptan-2-yl)methylamino)-2-oxoethyl)-2-oxo-1,2-dihydropyridin-3-yl)-2-(1H-imidazole-4-carboxamido)-N6-methyl-5-oxohexanediamide]",,< 1,,,,,,,,1 to 3,,,400 to 2500
"CNC(=O)C(=O)CC[C@H](NC(=O)c1cncn1C)C(=O)Nc1cccn(CC(=O)NC23CC4CC(C)(CC(C)(C4)C2)C3)c1=O [II-210, (S)-N1-(1-(2-(3,5-dimethyladamantane-1-amino)-2-oxoethyl)-2-oxo-1,2-dihydropyridin-3-yl)-N6-methyl-2-(1-methyl-1H-imidazole-5-carboxamido)-5-oxohexanediamide]",,< 1,,,,,,,,1 to 3,,,40 to 400
"CNC(=O)C(=O)CC[C@H](NC(=O)c1cncn1C)C(=O)Nc1cccn(CC(=O)NC23CC4(C)CC(C)(CC(C)(C4)C2)C3)c1=O [II-211, (S)-N1-(1-(2-(3,5,7-trimethyl-1-adamantylamino)-2-oxoethyl)-2-oxo-1,2-dihydropyridin-3-yl)-N6-methyl-2-(1-methyl-1H-imidazole-5-carboxamido)-5-oxohexanediamide]",,< 1,,,,,,,,1 to 3,,,40 to 400

# The next lines start with the values.
"Papp [1, 5] [×10⁻⁶ cm/s]","Papp [1, 6] [×10⁻⁶ cm/s]",Kel [2] [h⁻¹],CL/F [2] [mL/min/kg],MRT [2] [h],half-life [2] [h],AUC(0-t) [2] [ng·h/mL],Cmax ([2]; read-out: Cmax) [µM],Cmax ([2]; read-out: Cmax [ng/ml]) [ng/mL],logD [3],"IC90 ([4]; TG2, table with the PK study) [nM]","IC50 [4, 7] [nM]","IC50 [4, 8] [nM]",SMILES
5.9,1 to 10,0.9,102,1.1,0.9,36900,48.6,32300,1 to 3,375,35,< 40,"CNC(=O)C(=O)CC[C@H](NC(=O)c1sc(C(F)(F)F)nc1C)C(=O)Nc1cccn(CC(=O)NC2C3CC4CC(C3)CC2C4)c1=O (stereo partly drawn) [II-15, (S)-N1-(1-(2-(2-adamantylamino)-2-oxoethyl)-2-oxo-1,2-dihydropyridin-3-yl)-N6-methyl-2-(4-methyl-2-(trifluoromethyl)thiazole-5-carboxamido)-5-oxohexanediamide]"
7.4,1 to 10,0.6,247,1.6,1.1,14500,23.3,15100,1 to 3,240,24,< 40,"CNC(=O)C(=O)CC[C@H](NC(=O)c1cc(Cl)sc1Cl)C(=O)Nc1cccn(CC(=O)NC2C3CC4CC(C3)CC2C4)c1=O (stereo partly drawn) [II-28, (S)-2-(2,5-dichlorothiophene-3-carboxamido)-N1-(1-(2-(2-adamantylamino)-2-oxoethyl)-2-oxo-1,2-dihydropyridin-3-yl)-N6-methyl-5-oxohexanediamide]"
,< 1,,,,,,,,< 1,,,40 to 400,"CNC(=O)C(=O)CC[C@H](NC(=O)c1snnc1C=O)C(=O)Nc1cccn(CC(=O)NC2C3CC4CC(C3)CC2C4)c1=O (stereo partly drawn) [II-205, (S)-2-(4-formyl-1,2,3-thiadiazole-5-carboxamido)-N1-(1-(2-(2-adamantylamino)-2-oxoethyl)-2-oxo-1,2-dihydropyridin-3-yl)-N6-methyl-5-oxohexanediamide]"
